Data: PubChem BioAssay (NCI)
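Dose response: 5 concentrations. Exposure: 48 h. Format: 96-well plates. Endpoint: linear interpolation; highest concentration if not reached. The concentration for 50% growth inhibition is given as GI50. TGI marks complete inhibition of growth.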

Test system: COLO 205 colon
Experiment: growth of human tumour cells (NCI), 48 h

Point of comparison: `Cc1cccc(NC(=O)c2sc3nc4c(cc3c2N)CN(Cc2ccccc2)CC4)c1C`, GI50 0.274 µM. Against it:
- CC1=CC(=O)C(O)C2(C)C1CC(O)C13COC4(C)C(OC(=O)C41)C(O)C23 (stereo not given) — 44-fold higher, 12.1 µM

Point of comparison: `CC1=CC(=O)C(O)C2(C)C1CC(O)C13COC4(C)C(OC(=O)C41)C(O)C23` (stereo not given), TGI 77.1 µM. Against it:
- Cc1cccc(NC(=O)c2sc3nc4c(cc3c2N)CN(Cc2ccccc2)CC4)c1C — not separable, > 50 µM

Test system: PC-3 prostate
Experiment: growth of human tumour cells (NCI), 48 h

Point of comparison: `BrCc1ccc(CBr)cc1`, GI50 5.3 µM. Against it:
- O=C(Oc1cccnc1)c1ccsc1Nc1ccnc(C(F)(F)F)c1 — 1.7-fold higher, 9.24 µM
- Cc1cccc(NC(=O)c2sc3nc4c(cc3c2N)CN(Cc2ccccc2)CC4)c1C — 25-fold lower, 0.21 µM
- CC1=CC(=O)C(O)C2(C)C1CC(O)C13COC4(C)C(OC(=O)C41)C(O)C23 (stereo not given) — 5-fold higher, 26.4 µM

Point of comparison: `O=C(Oc1cccnc1)c1ccsc1Nc1ccnc(C(F)(F)F)c1`, TGI 73.2 µM. Against it:
- Cc1cccc(NC(=O)c2sc3nc4c(cc3c2N)CN(Cc2ccccc2)CC4)c1C — not separable, > 50 µM
- CC1=CC(=O)C(O)C2(C)C1CC(O)C13COC4(C)C(OC(=O)C41)C(O)C23 (stereo not given) — higher, > 100 µM

Test system: A498 renal
Experiment: growth of human tumour cells (NCI), 48 h

Point of comparison: `O=C(Oc1cccnc1)c1ccsc1Nc1ccnc(C(F)(F)F)c1`, GI50 31.1 µM. Against it:
- BrCc1ccc(CBr)cc1 — 1.7-fold lower, 18.3 µM
- Cc1cccc(NC(=O)c2sc3nc4c(cc3c2N)CN(Cc2ccccc2)CC4)c1C — 78-fold lower, 0.397 µM
- CC1=CC(=O)C(O)C2(C)C1CC(O)C13COC4(C)C(OC(=O)C41)C(O)C23 (stereo not given) — 1.7-fold lower, 18 µM

Point of comparison: `CC1=CC(=O)C(O)C2(C)C1CC(O)C13COC4(C)C(OC(=O)C41)C(O)C23` (stereo not given), TGI 54.4 µM. Against it:
- O=C(Oc1cccnc1)c1ccsc1Nc1ccnc(C(F)(F)F)c1 — within 1.5-fold, 76.2 µM
- BrCc1ccc(CBr)cc1 — within 1.5-fold, 38.1 µM
- Cc1cccc(NC(=O)c2sc3nc4c(cc3c2N)CN(Cc2ccccc2)CC4)c1C — not separable, > 50 µM

Test system: M14 melanoma
Experiment: growth of human tumour cells (NCI), 48 h

Point of comparison: `BrCc1ccc(CBr)cc1`, GI50 11.3 µM. Against it:
- O=C(Oc1cccnc1)c1ccsc1Nc1ccnc(C(F)(F)F)c1 — within 1.5-fold, 9.39 µM
- Cc1cccc(NC(=O)c2sc3nc4c(cc3c2N)CN(Cc2ccccc2)CC4)c1C — 76-fold lower, 0.149 µM
- CC1=CC(=O)C(O)C2(C)C1CC(O)C13COC4(C)C(OC(=O)C41)C(O)C23 (stereo not given) — 2.7-fold lower, 4.14 µM

Point of comparison: `CC1=CC(=O)C(O)C2(C)C1CC(O)C13COC4(C)C(OC(=O)C41)C(O)C23` (stereo not given), TGI 15.4 µM. Against it:
- O=C(Oc1cccnc1)c1ccsc1Nc1ccnc(C(F)(F)F)c1 — higher, > 100 µM
- BrCc1ccc(CBr)cc1 — higher, > 47.3 µM
- Cc1cccc(NC(=O)c2sc3nc4c(cc3c2N)CN(Cc2ccccc2)CC4)c1C — 2.2-fold higher, 33.2 µM

Test system: HT29 colon
Experiment: growth of human tumour cells (NCI), 48 h

Point of comparison: `CC1=CC(=O)C(O)C2(C)C1CC(O)C13COC4(C)C(OC(=O)C41)C(O)C23` (stereo not given), GI50 9.02 µM. Against it:
- O=C(Oc1cccnc1)c1ccsc1Nc1ccnc(C(F)(F)F)c1 — 3.8-fold lower, 2.39 µM
- BrCc1ccc(CBr)cc1 — 2.1-fold lower, 4.38 µM
- Cc1cccc(NC(=O)c2sc3nc4c(cc3c2N)CN(Cc2ccccc2)CC4)c1C — 61-fold lower, 0.147 µM

Point of comparison: `Cc1cccc(NC(=O)c2sc3nc4c(cc3c2N)CN(Cc2ccccc2)CC4)c1C`, TGI 1.6 µM. Against it:
- O=C(Oc1cccnc1)c1ccsc1Nc1ccnc(C(F)(F)F)c1 — 4-fold higher, 6.34 µM
- BrCc1ccc(CBr)cc1 — higher, > 23.9 µM
- CC1=CC(=O)C(O)C2(C)C1CC(O)C13COC4(C)C(OC(=O)C41)C(O)C23 (stereo not given) — higher, > 100 µM

Test system: NCI-H522 lung
Experiment: growth of human tumour cells (NCI), 48 h

Point of comparison: `BrCc1ccc(CBr)cc1`, GI50 18.2 µM. Against it:
- O=C(Oc1cccnc1)c1ccsc1Nc1ccnc(C(F)(F)F)c1 — 7.7-fold lower, 2.36 µM
- Cc1cccc(NC(=O)c2sc3nc4c(cc3c2N)CN(Cc2ccccc2)CC4)c1C — 130-fold lower, 0.138 µM
- CC1=CC(=O)C(O)C2(C)C1CC(O)C13COC4(C)C(OC(=O)C41)C(O)C23 (stereo not given) — 2.7-fold lower, 6.65 µM

Point of comparison: `BrCc1ccc(CBr)cc1`, TGI 52.2 µM. Against it:
- O=C(Oc1cccnc1)c1ccsc1Nc1ccnc(C(F)(F)F)c1 — 6.2-fold lower, 8.36 µM
- Cc1cccc(NC(=O)c2sc3nc4c(cc3c2N)CN(Cc2ccccc2)CC4)c1C — not separable, > 50 µM
- CC1=CC(=O)C(O)C2(C)C1CC(O)C13COC4(C)C(OC(=O)C41)C(O)C23 (stereo not given) — 1.7-fold lower, 30.5 µM

Test system: HCC-2998 colon
Experiment: growth of human tumour cells (NCI), 48 h

Point of comparison: `O=C(Oc1cccnc1)c1ccsc1Nc1ccnc(C(F)(F)F)c1`, GI50 11 µM. Against it:
- BrCc1ccc(CBr)cc1 — 1.7-fold lower, 6.4 µM
- Cc1cccc(NC(=O)c2sc3nc4c(cc3c2N)CN(Cc2ccccc2)CC4)c1C — 2-fold lower, 5.39 µM

Point of comparison: `O=C(Oc1cccnc1)c1ccsc1Nc1ccnc(C(F)(F)F)c1`, TGI 24 µM. Against it:
- BrCc1ccc(CBr)cc1 — 1.6-fold lower, 15.3 µM
- Cc1cccc(NC(=O)c2sc3nc4c(cc3c2N)CN(Cc2ccccc2)CC4)c1C — higher, > 50 µM

Test system: HS 578T breast
Experiment: growth of human tumour cells (NCI), 48 h

Point of comparison: `Cc1cccc(NC(=O)c2sc3nc4c(cc3c2N)CN(Cc2ccccc2)CC4)c1C`, GI50 0.189 µM. Against it:
- BrCc1ccc(CBr)cc1 — 110-fold higher, 21.6 µM
- CC1=CC(=O)C(O)C2(C)C1CC(O)C13COC4(C)C(OC(=O)C41)C(O)C23 (stereo not given) — 66-fold higher, 12.5 µM

Point of comparison: `CC1=CC(=O)C(O)C2(C)C1CC(O)C13COC4(C)C(OC(=O)C41)C(O)C23` (stereo not given), TGI 57.2 µM. Against it:
- BrCc1ccc(CBr)cc1 — within 1.5-fold, 69 µM
- Cc1cccc(NC(=O)c2sc3nc4c(cc3c2N)CN(Cc2ccccc2)CC4)c1C — not separable, > 50 µM
